Drawing on patent US20220112187A1, “PYRAZOLOPYRIDINE AMINE COMPOUNDS FOR THE TREATMENT OF AUTOIMMUNE DISEASE” (Hoffmann-La Roche Inc., priority 2018, published 2022), this text covers IC50 for 23 compounds.

As usually defined, the IC50 is the midpoint of a concentration-inhibition curve. A high value points to weaker potency.

The target in the experiment is T1, human TLR9 (Homo sapiens, UniProt Q9NR96).
T1 sequence (Q9NR96 26-1032): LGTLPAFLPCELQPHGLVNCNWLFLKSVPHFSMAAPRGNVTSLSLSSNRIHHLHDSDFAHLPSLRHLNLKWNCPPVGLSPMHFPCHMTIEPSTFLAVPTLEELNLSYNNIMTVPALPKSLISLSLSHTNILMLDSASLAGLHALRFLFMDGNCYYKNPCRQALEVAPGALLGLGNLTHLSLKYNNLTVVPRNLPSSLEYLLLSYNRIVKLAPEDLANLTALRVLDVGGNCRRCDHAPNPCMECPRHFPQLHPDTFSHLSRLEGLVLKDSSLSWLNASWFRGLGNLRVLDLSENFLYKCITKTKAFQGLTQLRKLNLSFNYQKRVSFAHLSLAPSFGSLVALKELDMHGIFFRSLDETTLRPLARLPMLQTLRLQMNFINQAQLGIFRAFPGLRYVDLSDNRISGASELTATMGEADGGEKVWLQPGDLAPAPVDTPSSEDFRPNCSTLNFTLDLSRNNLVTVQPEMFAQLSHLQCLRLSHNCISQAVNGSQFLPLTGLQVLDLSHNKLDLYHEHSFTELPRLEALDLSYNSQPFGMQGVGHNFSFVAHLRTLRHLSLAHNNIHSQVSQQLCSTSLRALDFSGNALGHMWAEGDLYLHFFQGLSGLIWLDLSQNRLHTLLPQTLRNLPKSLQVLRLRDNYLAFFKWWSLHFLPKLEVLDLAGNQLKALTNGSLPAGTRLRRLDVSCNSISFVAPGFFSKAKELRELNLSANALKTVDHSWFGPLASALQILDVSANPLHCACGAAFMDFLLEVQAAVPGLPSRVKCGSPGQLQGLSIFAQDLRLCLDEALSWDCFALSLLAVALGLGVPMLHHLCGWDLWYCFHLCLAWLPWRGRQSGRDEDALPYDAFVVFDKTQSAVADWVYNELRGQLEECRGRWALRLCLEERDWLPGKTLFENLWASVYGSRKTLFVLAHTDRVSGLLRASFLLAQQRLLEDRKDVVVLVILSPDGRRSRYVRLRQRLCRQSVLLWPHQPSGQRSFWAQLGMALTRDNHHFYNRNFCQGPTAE
Put plainly: HEK293-Blue-hTLR-9 cells assay (SEAP reporter, ODN2006 stimulation). The conditions noted are these: HEK293-Blue-hTLR9 cells, ODN2006 ligand, 20 hrs incubation. Type of experiment: cell-based. An excerpt: A stable HEK293-Blue-hTLR-9 cell line was purchased from InvivoGen (Cat. #: hkb-htlr9, San Diego, Calif., USA). These cells were originally designed for studying the stimulation of human TLR9 by monitoring the activation of NF-κB. A SEAP (secreted embryonic alkaline phosphatase) reporter gene was placed under the control of the IFN-β minimal promoter fused to five NF-κB and AP-1-binding sites. The SEAP was induced by activating NF-κB and AP-1 via stimulating HEK-Blue hTLR9 cells with TLR9 ligands. Therefore the reporter expression was declined by TLR9 antagonist under the stimulation of a ligand, such as ODN2006 (Cat. #: tlr1-2006-1, Invivogen, San Diego, Calif., USA), for incubation of 20 hrs. The cell culture supernatant SEAP reporter activity was determined using QUANTI-Blue™ kit (Cat. #: rep-qb1, Invivogen, San Diego, Calif., USA) at a wavelength of 640 nm, a detection medium that turns purple or blue in the presence of alkaline phosphatase.
HEK293-Blue-hTLR9 cells were incubated at a density of 250,000˜450,000 cells/mL in a volume of 170 μL in a 96-well plate in Dulbecco's Modified Eagle's medium (DMEM) containing 4.5 g/L glucose, 50 U/mL penicillin, […], […], 2 mM L-glutamine, 10% (v/v) heat-inactivated fetal bovine serum with addition of 20 μL test compound in a serial dilution in the presence of final DMSO at 1% and 10 μL of 20 uM ODN2006 in above DMEM, perform incubation under 37° C. in a CO2 incubator for 20 hrs. Then 20 μL of the supernatant from each well was incubated with 180 μL Quanti-blue substrate solution at 37° C. for 2 hrs and the absorbance was read at 620-655 nm using a spectrophotorneter. The signalling pathway that TLR9 activation leads to downstream NF-κB activation has been widely accepted, and therefore similar reporter assay was modified for evaluating TLR9 antagonist.

Compound `C[C@@H]1CN(c2ccc(C#N)n3nccc23)C[C@H](CN2CC3CCNCC3C2)O1` (stereo partly drawn) [Example 49, 4-[(2S,6R)-2-(1,3,3a,4,5,6,7,7a-octahydropyrrolo[3,4-c]pyridin-2-ylmethyl)-6-methyl-morpholin-4-yl]pyrazolo[1,5-a]pyridine-7-carbonitrile] displayed an IC50 of 120 nM. In turn, `C[C@@H]1CN(c2ccc(C#N)n3nccc23)C[C@H](CN2CC3CCC2CN3)O1` (stereo partly drawn) [Example 30, 4-[(2S,6R)-2-(2,5-diazabicyclo[2.2.2]octan-2-ylmethyl)-6-methyl-morpholin-4-yl]pyrazolo[1,5-a]pyridine-7-carbonitrile] had an IC50 of 3200 nM.

Regarding `C[C@@H]1CN(c2ccc(C#N)n3nccc23)C[C@H](CN2CCC3(CCCCN3)C2)O1` (stereo partly drawn) [Example 42, 4-[(2S,6R)-2-(2,6-diazaspiro[4.5]decan-2-ylmethyl)-6-methyl-morpholin-4-yl]pyrazolo[1,5-a]pyridine-7-carbonitrile], the IC50 is 1700 nM. `CC1CNCCN1C[C@H]1CN(c2ccc(C#N)n3nccc23)C[C@@H](C)O1` (single isomer, unassigned) [Example 50A] came in with an IC50 of 16000 nM. The figure for `C[C@@H]1CN(c2ccc(C#N)n3nccc23)C[C@H](CN2CCCC3(CCCNC3)C2)O1` (stereo partly drawn) [Example 23, 4-[(2S,6R)-2-(2,8-diazaspiro[5.5]undecan-2-ylmethyl)-6-methyl-morpholin-4-yl]pyrazolo[1,5-a]pyridine-7-carbonitrile] is 250 nM; for `CC1CC(N)CCN1C[C@H]1CN(c2ccc(C#N)n3nccc23)C[C@@H](C)O1` (stereo partly drawn) [Example 51, 4-[(2S,6R)-2-[(4-amino-2-methyl-1-piperidyl)methyl]-6-methyl-morpholin-4-yl]pyrazolo[1,5-a]pyridine-7-carbonitrile] it is 230 nM; for `C[C@@H]1CN(c2ccc(C#N)n3nccc23)C[C@H](CN2CC3(CCCNC3)C2)O1` [Example 10, 4-[(2S,6R)-2-(2,8-diazaspiro[3.5]nonan-2-ylmethyl)-6-methyl-morpholin-4-yl]pyrazolo[1,5-a]pyridine-7-carbonitrile] it is 80 nM.

Compound `C[C@@H]1CN(c2ccc(C#N)n3nccc23)C[C@H](CN2CCCC3NCCCC32)O1` (stereo partly drawn) [Example 64, 4-[(2S,6R)-2-(3,4,4a,5,6,7,8,8a-octahydro-2H-1,5-naphthyridin-1-ylmethyl)-6-methyl-morpholin-4-yl]pyrazolo[1,5-a]pyridine-7-carbonitrile] had an IC50 of 2200 nM. Take `C[C@@H]1CN(c2ccc(C#N)n3nccc23)C[C@H](CN2CCC(N3CCNCC3)CC2)O1` [Example 39, 4-[(2R,6S)-2-methyl-6-[(4-piperazin-1-yl-1-piperidyl)methyl]morpholin-4-yl]pyrazolo[1,5-a]pyridine-7-carbonitrile]: the concentration for half-maximal inhibition (IC50) is 96 nM. With `C[C@@H]1CN(c2ccc(C#N)n3nccc23)C[C@H](CN2CC(N)C(F)(F)C2)O1` (stereo partly drawn) [Example 35, 4-[(2S,6R)-2-[(4-amino-3,3-difluoro-pyrrolidin-1-yl)methyl]-6-methyl-morpholin-4-yl]pyrazolo[1,5-a]pyridine-7-carbonitrile], the IC50 is greater than 100000 nM. `C[C@@H]1CN(c2ccc(C#N)n3nccc23)C[C@H](CN2CCC(N3CCCC3)CC2)O1` [Example 54, 4-[(2R,6S)-2-methyl-6-[(4-pyrrolidin-1-yl-1-piperidyl)methyl]morpholin-4-yl]pyrazolo[1,5-a]pyridine-7-carbonitrile]: the IC50 is 510 nM. The figure for `C[C@@H]1CN(c2ccc(C#N)n3nccc23)C[C@H](CN2CCC3(CCN3)CC2)O1` [Example 48, 4-[(2S,6R)-2-(1,7-diazaspiro[3.5]nonan-7-ylmethyl)-6-methyl-morpholin-4-yl]pyrazolo[1,5-a]pyridine-7-carbonitrile] is 250 nM; for `CC1CN(C[C@H]2CN(c3ccc(C#N)n4nccc34)C[C@@H](C)O2)CCN1` (stereo partly drawn) [Example 28, 4-[(2R,6S)-2-methyl-6-[(3-methylpiperazin-1-yl)methyl]morpholin-4-yl]pyrazolo[1,5-a]pyridine-7-carbonitrile] it is 14000 nM; for `C[C@@H]1CN(c2ccc(C#N)n3nccc23)C[C@H](CN2CCC3(CCNCC3)C2)O1` [Example 18, 4-[(2S,6R)-2-(2,8-diazaspiro[4.5]decan-2-ylmethyl)-6-methyl-morpholin-4-yl]pyrazolo[1,5-a]pyridine-7-carbonitrile] it is 89 nM. The compound `C[C@@H]1CN(c2ccc(C#N)n3nccc23)C[C@H](CN2CCC(N)CC2)O1` [Example 17, 4-[(2S,6R)-2-[(4-amino-1-piperidyl)methyl]-6-methyl-morpholin-4-yl]pyrazolo[1,5-a]pyridine-7-carbonitrile] yielded an IC50 of 180 nM.

The compound `C[C@@H]1CN(c2ccc(C#N)n3nccc23)C[C@H](CN2C3CCC2CC(N)C3)O1` (stereo partly drawn) [Example 37, 4-[(2S,6R)-2-[(3-amino-8-azabicyclo[3.2.1]octan-8-yl)methyl]-6-methyl-morpholin-4-yl]pyrazolo[1,5-a]pyridine-7-carbonitrile] gave an IC50 of 78 nM. On to `C[C@@H]1CN(c2ccc(C#N)n3nccc23)C[C@H](CN2C3CCCC2CC(N)C3)O1` (stereo partly drawn) [Example 65, Endo-4-[(2S,6R)-2-[(3-amino-9-azabicyclo[3.3.1]nonan-9-yl)methyl]-6-methyl-morpholin-4-yl]pyrazolo[1,5-a]pyridine-7-carbonitrile], for which half-maximal inhibition (IC50) required 140 nM. For `C[C@@H]1CN(c2ccc(C#N)n3nccc23)C[C@H](CN2CCN[C@H](c3ccccc3)C2)O1` [Example 38, 4-[(2R,6S)-2-methyl-6-[[(3R)-3-phenylpiperazin-1-yl]methyl]morpholin-4-yl]pyrazolo[1,5-a]pyridine-7-carbonitrile], half-maximal inhibition (IC50) was put at 1900 nM. Compound `C[C@@H]1CN(c2ccc(C#N)n3nccc23)C[C@H](CN2CCOC3(CCNCC3)C2)O1` [Example 71, 4-[(2R,6S)-2-methyl-6-(1-oxa-4,9-diazaspiro[5.5]undecan-4-ylmethyl)morpholin-4-yl]pyrazolo[1,5-a]pyridine-7-carbonitrile] gave an IC50 of 510 nM. `C[C@@H]1CN(c2ccc(C#N)n3nccc23)C[C@H](CN2CC3CCC(C2)C3N)O1` (stereo partly drawn) [Example 36, 4-[(2S,6R)-2-[(8-amino-3-azabicyclo[3.2.1]octan-3-yl)methyl]-6-methyl-morpholin-4-yl]pyrazolo[1,5-a]pyridine-7-carbonitrile] displayed a concentration for half-maximal inhibition (IC50) of 520 nM. Under `C[C@@H]1CN(c2ccc(C#N)n3nccc23)C[C@H](CN2CCC3(CN(C)CCO3)C2)O1` (stereo partly drawn) [Example 76, 4-[(2R,6S)-2-methyl-6-[(9-methyl-6-oxa-2,9-diazaspiro[4.5]decan-2-yl)methyl]morpholin-4-yl]pyrazolo[1,5-a]pyridine-7-carbonitrile] stands 3500 nM; under `C[C@@H]1CN(c2ccc(C#N)n3nccc23)C[C@H](CN2CCC(N3CCCCCC3)CC2)O1` [Example 4, 4-[(2S,6R)-2-[[4-(azepan-1-yl)-1-piperidyl]methyl]-6-methyl-morpholin-4-yl]pyrazolo[1,5-a]pyridine-7-carbonitrile], 280 nM. Under `C[C@@H]1CN(c2ccc(C#N)n3nccc23)C[C@H](CN2CC3(CCNCC3)C2)O1` [Example 24, 4-[(2S,6R)-2-(2,7-diazaspiro[3.5]nonan-2-ylmethyl)-6-methyl-morpholin-4-yl]pyrazolo[1,5-a]pyridine-7-carbonitrile] stands 100 nM.
